Laboratory results published in patent US11046716B2, “Beta-lactamase inhibitors” (priority 2015, dated 2021).
pIC50: −log10 of the molar value.

Columns and labels:
[1] = system: E. coli expressing the Class A Extended Spectrum Beta-Lactamase (ESBL) CTX-M-15; assay: Broth microdilution MIC assay with ceftazidime, E. coli CTX-M-15; format: cell-based; details: for MIC (μg/mL) of Exemplary Compounds in presence of fixed β-lactams: E. coli ESBL4 CTX-M-15: Fixed CAZ (ceftazidime) 4 μg/mL
Source text: (§1) To determine the ability of test compounds to potentiate the inhibition of the growth of bacterial strains that produce beta-lactamase enzymes in the presence of a β-lactam antibiotic, classic cell based broth microdilution MIC assays were employed. Six bacteria strains producing beta-lactamase enzymes were used: E. coli expressing the Class A Extended Spectrum Beta-Lactamase (ESBL) CTX-M-15, E. cloacae expressing the Class C P99, K. pneumoniae expressing the Class A carbapenemase KPC-2, P. aeruginosa expressing the Class B carbapenemase VIM-2, K. pneumoniae expressing the class A carbapenemase KPC-2 and the class B carbapenemase VIM-4, and K. pneumoniae producing the Class D carbapenemase OXA-48. The assay was conducted in Cation Adjusted Mueller Hinton Broth (CAMHB, BD #212322, BD Diagnostic Systems, Sparks, Md.). Bacteria strains were grown for 3-5 hours in CAMBH broth. Test compounds (Examples 1-94) were added to a microtiter plate in 2-fold serial dilutions in CAMHB in a final concentration range of 16 μg/mL to 0.125 μg/ml. An overlay of CAMHB containing a Beta-lactam was added to the compounds at a final static concentration of 4 μg/ml. […] In addition to the titration of test compounds the MICs of a panel of control beta-lactams is also tested to ensure the strains are behaving consistently from test to test. Once the test compound and antibiotics are added the plates can be inoculated according to CLSI broth microdilution method. After inoculation the plates are incubated for 16-20 hours at 37° C. then the Minimal Inhibitory Concentration (MIC) of the test compound is determined visually.
(§2) Using the methodology described above, examples of the current invention were evaluated for their ability to inhibit the growth of β-lactamase-producing bacteria in the presence of a β-lactam antibiotic.

[2] = system: E. cloacae expressing the Class C P99; assay: Broth microdilution MIC assay with ceftazidime, E. cloacae P99; format: cell-based; details: for MIC (μg/mL) of Exemplary Compounds in presence of fixed β-lactams: E. cl. 144200 p99 AmpC: Fixed CAZ (ceftazidime) 4 μg/mL
Source text: as §1, §2

KPC-2 = target: T1, KPC-2 (Klebsiella pneumoniae, UniProt Q9F663); assay: β-lactamase enzyme inhibition assay, KPC-2 (imipenem substrate); format: biochemical; details: Class A; imipenem substrate, 300 nm; read-out: KPC-2
T1 construct: made in house; host or cells: E. coli BL21(DE3)
T1 sequence (Q9F663 25-293, looked up): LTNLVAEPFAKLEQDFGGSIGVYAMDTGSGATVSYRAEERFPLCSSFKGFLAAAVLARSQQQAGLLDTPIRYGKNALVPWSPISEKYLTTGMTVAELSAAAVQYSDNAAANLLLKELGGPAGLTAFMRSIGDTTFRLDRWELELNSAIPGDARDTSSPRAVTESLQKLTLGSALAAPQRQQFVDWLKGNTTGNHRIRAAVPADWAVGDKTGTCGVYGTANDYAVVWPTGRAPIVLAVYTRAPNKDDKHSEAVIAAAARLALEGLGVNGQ
Procedure: (§3) For SHV-5, Kpc-2, p99AmpC and OXA-1 β-lactamases, E. coli BL21(DE3) bacterial cells carrying expression plasmids (expressed as native untagged proteins) for the individual β-lactamases were grown in 1 L of Superbroth (Teknova Inc. Hollister, Calif.) supplemented with 100 μg/ml kanamycin selection and 1×5052 (0.5% glycerol, 0.05% glucose and 0.2% α-lactose) at 35° C. for 18-20 hours. Cells were harvested by centrifugation (4,000×g, 4° C., 20 min), resuspended in 50 ml of 10 mM HEPES pH 7.5 ( 1/20 of the initial volume). The cells were lysed by sonication (5 pulses of 45 seconds) at 45 W on ice. The lysates were clarified by centrifugation at 10,000×g for 40 minutes at 4° C. Samples were diluted 5-fold in 50 mM sodium acetate pH 5.0, stored overnight at 4° C., after which they were centrifuged at 10,000×g for 30 minutes to clarify, and filtered through 0.45 μm filters. The samples were loaded onto a 5 ml Capto S sepharose cation exchange column (GE Healthcare) pre-equilibrated with 50 mM sodium acetate pH 5.0. The column was washed with 5 column volumes of 50 mM sodium acetate pH 5.0 to wash out unbound protein and a linear gradient of NaCl (0 to 500 mM) was used to elute the protein (over 16 CV) from the column. Fractions were assayed for β-lactamase activity using Centa (Calbiochem, Gibbstown, N.J.) or Nitrocefin (EMD Millipore chemicals, Darmstadt, Germany) as a reporter β-lactamase substrate for activity in the isolated fractions. Active fractions were pooled, concentrated and further purified by gel filtration chromatography on a Superdex 75 prep grade gel filtration column (GE Healthcare, Piscataway, N.J.) pre-equilibrated in 50 mM Hepes pH 7.5, 150 mM NaCl. Active fractions were pooled concentrated, quantitated by BCA protein determination (Thermo Scientific, Rockford, Ill.), dialyzed into PBS and frozen at −80° C. in 20% glycerol until use.
(§4) An equal volume of diluted enzyme stock was added, and the plates were incubated at 37° C. for 15 min. Nitrocefin was used as substrate for p99 AmpC, VIM-2 and OXA-1 and dispensed into each well at a final concentration of 100 μM. Absorbance at 486 nm was immediately monitored for 10 min using a Biotek Powerwave XS2 microplate spectrophotometer using the GEN5 software package (Biotek Instruments, Winooski Vt.). In an analogous fashion, imipenem was used as substrate for Kpc-2 and Cefotaxime was used for SHV-5, while changes in absorbance upon hydrolysis of the β-lactam ring were monitored at 300 nm and 260 nm respectively in UV-transparent 96-well microtiter assay plates. Maximum rates of hydrolysis were compared to those in control wells (without inhibitors), and percentages of enzyme inhibition were calculated for each concentration of inhibitor. The concentration of inhibitor needed to reduce the initial rate of hydrolysis of substrate by 50% (IC50) was calculated as the residual activity of β-lactamase at 486 nm using GraFit version 7 kinetics software package (Erithacus Software, Surrey, UK).
(§5) Using the methodology described above, examples of the current invention were evaluated for their ability to inhibit β-lactamase enzymes from all four Ambler classifications (A through D). […] NT=Not tested.

VIM-2 = target: T2, VIM-2 (Escherichia coli, UniProt Q5U7L7); assay: β-lactamase enzyme inhibition assay, VIM-2 (nitrocefin substrate); format: biochemical; details: Class B; nitrocefin substrate, 486 nm; read-out: VIM-2
T2 construct: made in house; host or cells: E. coli BL21(DE3)
Procedure: For Vim-2 metallo β-lactamase, the procedure was identical with the following exceptions, first the protein was not pH adjusted to pH 5 with 50 mM sodium acetate, second, the chromatography step was changed to a 5 ml Q sepharose anion exchange column pre-equilibrated with 50 mM Hepes pH 7.5, and elution of the protein was achieved by a linear gradient of NaCl (0-600 mM). Finally, the VIM-2 purification required a second run (3rd step) on the Q sepharose anion exchange column to achieve acceptable purity (>90%).
as §4, §5

[3] = system: K. pneumoniae expressing the class A carbapenemase KPC-2 and the class B carbapenemase VIM-4; assay: Broth microdilution MIC assay with meropenem, K. pneumoniae KPC-2 and VIM-4; format: cell-based; details: Fixed Mero (meropenem) 4 μg/mL; K. p. A-1797 KPC-2 VIM-4
Source text: as §1, §2

[4] = system: K. pneumoniae expressing the Class A carbapenemase KPC-2; assay: Broth microdilution MIC assay with meropenem, K. pneumoniae KPC-2; format: cell-based; details: Fixed Mero (meropenem) 4 μg/mL; K. p. 156319 KPC-3
Source text: as §1, §2

SHV-5 = target: T3, SHV-5 (Klebsiella pneumoniae, UniProt P0A3M1); assay: β-lactamase enzyme inhibition assay, SHV-5 (cefotaxime substrate); format: biochemical
T3 construct: made in house; host or cells: E. coli BL21(DE3)
T3 sequence (P0A3M1 22-286): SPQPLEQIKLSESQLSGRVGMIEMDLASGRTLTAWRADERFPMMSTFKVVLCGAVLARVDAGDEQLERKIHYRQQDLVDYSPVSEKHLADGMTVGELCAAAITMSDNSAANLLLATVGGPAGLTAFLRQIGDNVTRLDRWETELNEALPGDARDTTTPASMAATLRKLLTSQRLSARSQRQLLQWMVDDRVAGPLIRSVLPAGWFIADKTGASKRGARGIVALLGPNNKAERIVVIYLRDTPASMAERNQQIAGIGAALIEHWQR
Procedure: as §3, §4, §5

OXA-48 = OXA-48 (UniProt Q6XEC0); assay: β-lactamase enzyme inhibition assay, Class D oxacillinase; format: biochemical; details: read-out: OXA-48
AmpC = target: T4, AmpC (Enterobacter cloacae, UniProt P05364); assay: β-lactamase enzyme inhibition assay, p99 AmpC (nitrocefin substrate); format: biochemical
T4 construct: made in house; host or cells: E. coli BL21(DE3)
T4 sequence (P05364 21-381): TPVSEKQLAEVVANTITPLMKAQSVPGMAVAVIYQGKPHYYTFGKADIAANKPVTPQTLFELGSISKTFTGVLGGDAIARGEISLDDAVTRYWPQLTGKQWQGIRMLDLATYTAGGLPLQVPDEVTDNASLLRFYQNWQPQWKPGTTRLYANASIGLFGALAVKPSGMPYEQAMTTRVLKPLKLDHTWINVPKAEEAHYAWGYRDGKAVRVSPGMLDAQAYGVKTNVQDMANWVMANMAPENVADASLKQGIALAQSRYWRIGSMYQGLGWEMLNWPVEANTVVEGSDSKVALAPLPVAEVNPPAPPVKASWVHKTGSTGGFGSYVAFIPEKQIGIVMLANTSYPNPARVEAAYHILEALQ
Procedure: as §3, §4, §5

[5] = system: K. pneumoniae producing the Class D carbapenemase OXA-48; assay: Broth microdilution MIC assay with meropenem, K. pneumoniae OXA-48; format: cell-based; details: Fixed Mero (meropenem) 4 μg/mL; K. p. 11978 OXA-48
Source text: as §1, §2

[6] = system: P. aeruginosa expressing the Class B carbapenemase VIM-2; assay: Broth microdilution MIC assay with meropenem, P. aeruginosa VIM-2; format: cell-based; details: Fixed Mero (meropenem) 4 μg/mL; P. aerug. 2775 VIM-2
Source text: as §1, §2

CC(C)(O/N=C(\C(=O)N[C@@H]1C(=O)N2C(C(=O)[O-])=C(C[n+]3ccccc3)CS[C@H]12)c1csc(N)n1)C(=O)O [Ceftazidime, ceftazidime, reference compound]
MIC ([1]; Escherichia coli, read-out: MIC alone): > 128 µg/mL | MIC ([2]; Enterobacter cloacae, read-out: MIC alone): 128 µg/mL

O=C(Cn1cc(-c2ccccn2)nn1)N[C@H]1Cc2cccc(C(=O)O)c2OB1O [Example 10, (R)-2-hydroxy-3-(2-(4-(pyridin-2-yl)-1H-1,2,3-triazol-1-yl)acetamido)-3,4-dihydro-2H-benzo[e][1,2]oxaborinine-8-carboxylic acid]
pIC50 (KPC-2): > 7.00 | pIC50 (VIM-2): 5.00 to 6.00 | MIC (μg/mL) of Exemplary Compounds in presence of fixed β-lactams: E. coli ESBL4 CTX-M-15 [1]: C (C represents an MIC of <1 μg/mL) | MIC (μg/mL) of Exemplary Compounds in presence of fixed β-lactams: K. p. A-1797 KPC-2 VIM-4 [3]: A (A represents an MIC>16 μg/mL) | MIC (μg/mL) of Exemplary Compounds in presence of fixed β-lactams: K. p. 156319 KPC-3 [4]: B (B represents an MIC between 1 and 16 μg/mL inclusive) | pIC50 (SHV-5): > 7.00 | pIC50 (OXA-48): > 7.00 | pIC50 (AmpC): > 7.00 | MIC (μg/mL) of Exemplary Compounds in presence of fixed β-lactams: K. p. 11978 OXA-48 [5]: B (B represents an MIC between 1 and 16 μg/mL inclusive) | MIC (μg/mL) of Exemplary Compounds in presence of fixed β-lactams: E. cl. 144200 p99 AmpC [2]: C (C represents an MIC of <1 μg/mL)

NCc1nnnn1CC(=O)N[C@H]1Cc2cccc(C(=O)O)c2OB1O [Example 17, (R)-3-(2-(5-(aminomethyl)-1H-tetrazol-1-yl)acetamido)-2-hydroxy-3,4-dihydro-2H-benzo[e][1,2]oxaborinine-8-carboxylic acid]
pIC50 (KPC-2): > 7.00 | pIC50 (VIM-2): > 7.00 | MIC (μg/mL) of Exemplary Compounds in presence of fixed β-lactams: E. coli ESBL4 CTX-M-15 [1]: C (C represents an MIC of <1 μg/mL) | MIC (μg/mL) of Exemplary Compounds in presence of fixed β-lactams: K. p. A-1797 KPC-2 VIM-4 [3]: B (B represents an MIC between 1 and 16 μg/mL inclusive) | MIC (μg/mL) of Exemplary Compounds in presence of fixed β-lactams: P. aerug. 2775 VIM-2 [6]: C (C represents an MIC of <1 μg/mL) | MIC (μg/mL) of Exemplary Compounds in presence of fixed β-lactams: K. p. 156319 KPC-3 [4]: B (B represents an MIC between 1 and 16 μg/mL inclusive) | pIC50 (OXA-48): 6.00 to 7.00 | MIC (μg/mL) of Exemplary Compounds in presence of fixed β-lactams: K. p. 11978 OXA-48 [5]: B (B represents an MIC between 1 and 16 μg/mL inclusive) | MIC (μg/mL) of Exemplary Compounds in presence of fixed β-lactams: E. cl. 144200 p99 AmpC [2]: C (C represents an MIC of <1 μg/mL)

O=C(Cn1cncn1)N[C@H]1Cc2cccc(C(=O)O)c2OB1O [Example 18, (R)-3-(2-(1H-1,2,4-triazol-1-yl)acetamido)-2-hydroxy-3,4-dihydro-2H-benzo[e][1,2]oxaborinine-8-carboxylic acid]
pIC50 (KPC-2): > 7.00 | pIC50 (VIM-2): 6.00 to 7.00 | MIC (μg/mL) of Exemplary Compounds in presence of fixed β-lactams: E. coli ESBL4 CTX-M-15 [1]: C (C represents an MIC of <1 μg/mL) | MIC (μg/mL) of Exemplary Compounds in presence of fixed β-lactams: K. p. A-1797 KPC-2 VIM-4 [3]: B (B represents an MIC between 1 and 16 μg/mL inclusive) | MIC (μg/mL) of Exemplary Compounds in presence of fixed β-lactams: P. aerug. 2775 VIM-2 [6]: B (B represents an MIC between 1 and 16 μg/mL inclusive) | MIC (μg/mL) of Exemplary Compounds in presence of fixed β-lactams: K. p. 156319 KPC-3 [4]: C (C represents an MIC of <1 μg/mL) | pIC50 (OXA-48): 5.00 to 6.00 | MIC (μg/mL) of Exemplary Compounds in presence of fixed β-lactams: K. p. 11978 OXA-48 [5]: B (B represents an MIC between 1 and 16 μg/mL inclusive) | MIC (μg/mL) of Exemplary Compounds in presence of fixed β-lactams: E. cl. 144200 p99 AmpC [2]: C (C represents an MIC of <1 μg/mL)

Cc1nnn(CC(=O)N[C@H]2Cc3cccc(C(=O)O)c3OB2O)c1CN [Example 120, (R)-3-(2-(5-(aminomethyl)-4-methyl-1H-1,2,3-triazol-1-yl)acetamido)-2-hydroxy-3,4-dihydro-2H-benzo[e][1,2]oxaborinine-8-carboxylic acid]
pIC50 (KPC-2): > 7.00 | pIC50 (VIM-2): > 7.00 | MIC (μg/mL) of Exemplary Compounds in presence of fixed β-lactams: E. coli ESBL4 CTX-M-15 [1]: C (C represents an MIC of <1 μg/mL) | MIC (μg/mL) of Exemplary Compounds in presence of fixed β-lactams: K. p. A-1797 KPC-2 VIM-4 [3]: B (B represents an MIC between 1 and 16 μg/mL inclusive) | MIC (μg/mL) of Exemplary Compounds in presence of fixed β-lactams: K. p. 156319 KPC-3 [4]: B (B represents an MIC between 1 and 16 μg/mL inclusive) | pIC50 (SHV-5): 6.00 to 7.00 | pIC50 (OXA-48): > 7.00 | pIC50 (AmpC): > 7.00 | MIC (μg/mL) of Exemplary Compounds in presence of fixed β-lactams: K. p. 11978 OXA-48 [5]: B (B represents an MIC between 1 and 16 μg/mL inclusive) | MIC (μg/mL) of Exemplary Compounds in presence of fixed β-lactams: E. cl. 144200 p99 AmpC [2]: C (C represents an MIC of <1 μg/mL)
